Results reported in patent US9599603B2, “Methods and compositions for modulating adhesion and migration of cadherin expressing cells” (Case Western Reserve University, priority 2008, dated 2017).

Columns and labels:
Assay type in all cases: cell-based
[1] = target: T1, N-cadherin (Homo sapiens, UniProt P19022); assay: RGC neurite outgrowth on N-cadherin substrate (antagonist screen); settings: ADH-1 vs vehicle control (FIG. 16A)
T1 construct: Fc (C); purchased R&D Systems
Method: Sterile 35 mm tissue culture dishes for retinal explants were coated with nitrocellulose in methanol and allowed to dry, before spreading 0.04-0.045 μg/plate of human N-cadherin-Fc (R&D Systems, Minneapolis, Minn.) across the center of each dish. Remaining binding sites on the nitrocellulose were blocked with 2% bovine serum albumin (BSA; Sigma, St. Louis, Mo.) in calcium/magnesium free phosphate buffer (CMF), and the dishes were rinsed with RPMI-1640 medium (HyClone, Logan, Utah). Cultures of retinal explants from embryonic day 8 chick were made as previously described in. Retinal explants were grown in RPMI-1640, 10% fetal bovine serum (HyClone), 2% chick serum (Invitrogen, Carlsbad, Calif.), 100 U/ml penicillin, 0.1 mg/ml streptomycin and 0.025 μg/ml amphotericin (Sigma). […] Neurite outgrowth was evaluated approximately 20 hours after plating. […] If outgrowth was affected, subsequent experiments determined the minimum concentration to affect outgrowth. […]
Neurite outgrowth was examined on a Nikon TE-200 inverted microscope (Tokyo, Japan), using a 10× objective. […] Subsequently measurements of neurite length and density were quantitated using the images. Length of the five longest neurites per explant was measured using MetaMorph version 6.3r4 (Molecular Devices, Downington Pa.). […] Control and experimental conditions were analyzed using the same thresholding parameters. […]

[2] = system: Laminin; assay: LN-229 glioblastoma cell adhesion to Laminin substrate (specificity control); settings: 1 mM ADH-1, compared to control
Method: (§1) Sterile 35 mm tissue culture dishes were coated with nitrocellulose in methanol and allowed to dry. Distinct spots, containing 50 ng of either purified Laminin (Sigma) or N-cadherin-Fc (R&D Systems), were made by spotting 10 μl of protein solution on the nitrocellulose-coated tissue culture dishes. Each dish contained two distinct spots of both Laminin and N-cadherin-Fc. After a 20-min incubation at room temperature, the protein solutions were aspirated. Remaining binding sites on the nitrocellulose were blocked with 2% BSA in PBS, and the dishes were rinsed with DMEM (Invitrogen).
(§2) LN-229 (American Type Culture Collection, Manassus, Va.) cells plated the previous day in 100 mm tissue culture dishes and grown to 80% confluence were released with 2 mM EDTA in CMF. 4×10^5 cells were added to each tissue culture dish in the presence of N-cadherin peptidomimetic small molecules, reconstituted in either DMSO or 0.3% cyclodextrin, and diluted in DMEM supplemented with 10% fetal bovine serum (HyClone). […]
(§3) Adherent cells were detected by phase contrast light microscopy using a 20× objective on a Nikon TE-200 inverted microscope. […] The number of adherent cells per image was determined using threshold parameters in MetaMorph that highlighted individual cells that spread on the substrate spots. […] Data from control and experimental conditions were evaluated using the same thresholding parameters. […]

[3] = target: T1, N-cadherin; assay: LN-229 glioblastoma cell adhesion to N-cadherin substrate; settings: dose of 1 mM, 2 h adhesion
Method: as §1, §2, §3

T1 sequence (P19022 with tags, fused parts or gaps limits assumed): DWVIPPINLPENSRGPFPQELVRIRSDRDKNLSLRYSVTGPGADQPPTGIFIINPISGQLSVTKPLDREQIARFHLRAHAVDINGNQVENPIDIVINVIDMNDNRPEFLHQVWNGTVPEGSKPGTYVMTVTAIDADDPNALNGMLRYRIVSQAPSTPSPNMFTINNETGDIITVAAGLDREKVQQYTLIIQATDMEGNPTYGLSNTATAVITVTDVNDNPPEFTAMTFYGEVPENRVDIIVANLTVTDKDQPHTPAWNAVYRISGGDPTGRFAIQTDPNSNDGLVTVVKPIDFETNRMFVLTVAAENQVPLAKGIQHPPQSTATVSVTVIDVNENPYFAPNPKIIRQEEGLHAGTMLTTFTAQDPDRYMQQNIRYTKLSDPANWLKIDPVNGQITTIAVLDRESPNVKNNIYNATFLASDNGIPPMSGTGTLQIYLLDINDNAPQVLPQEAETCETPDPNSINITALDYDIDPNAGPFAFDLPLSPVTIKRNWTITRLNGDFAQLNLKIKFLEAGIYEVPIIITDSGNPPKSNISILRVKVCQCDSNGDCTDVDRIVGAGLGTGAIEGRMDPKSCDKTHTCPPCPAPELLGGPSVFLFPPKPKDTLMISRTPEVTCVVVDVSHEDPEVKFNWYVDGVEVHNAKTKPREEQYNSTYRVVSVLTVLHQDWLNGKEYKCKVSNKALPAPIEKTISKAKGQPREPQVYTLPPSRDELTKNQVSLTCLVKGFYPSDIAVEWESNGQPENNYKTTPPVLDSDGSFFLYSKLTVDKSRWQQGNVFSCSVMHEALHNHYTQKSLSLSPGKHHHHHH

SMILES: CC(=O)N[C@H]1CSSC[C@@H](C(N)=O)NC(=O)[C@H](C(C)C)NC(=O)[C@H](C)NC(=O)[C@H](Cc2c[nH]cn2)NC1=O [ADH-1, N-Ac-CHAVC-NH2]
- effect on RGC neurite outgrowth on a substrate of N-cadherin [1]: eliminate RGC neurite outgrowth
- LN-229 adhesion to Laminin [2]: unaffected
- adhesion of LN-229 cells to an N-cadherin substrate [3]: 46 % of control
